Consider one compound from ChEMBL document CHEMBL1926617, “Antifungal activities of novel non-azole molecules against S. cerevisiae and C. albicans” (Eur J Med Chem, 2012).

Values after ≈ are worked out from the molar mass of the structure shown. Active and inactive are the calls of the source. The calls are words filed in the database; no cut-off is given here.

In general, IC50 refers to the concentration that gives 50% inhibition. As usually defined, the inhibition is the drop in the measured response relative to a control, in per cent. By MIC is commonly meant the lowest concentration that inhibits growth of the organism. As a reminder, the MIC50 is the lowest concentration that inhibits either 50% of growth or 50% of the strains tested, depending on the study.

Assay [1] concerns Saccharomyces cerevisiae. Nature of the assay: Fungistatic activity against Saccharomyces cerevisiae ATCC 24657 assessed as cell proliferation at 100 uM after 24 hrs by spectrophotometric bioassay. It is filed as functional, organism-based.
Assay [2] addresses Cytochrome P450 2D6 (Homo sapiens, UniProt P10635). Nature of the assay: Inhibition of human recombinant CYP2D6. The class given is ADME.
For assay [3], the target named is Cytochrome P450 2C9 (Homo sapiens, UniProt P11712). Nature of the assay: Inhibition of human recombinant CYP2C9. It is filed as ADME.
The subject of assay [4] is Saccharomyces cerevisiae. Nature of the assay: Fungistatic activity against Saccharomyces cerevisiae ATCC 24657 assessed as cell proliferation at 100 uM after 24 hrs by agar plate bioassay relative to control. It is filed as functional. The note with it: ATCC 24657, 24 h.
For assay [5], the target named is Cytochrome P450 3A4 (Homo sapiens, UniProt P08684). Nature of the assay: Inhibition of human recombinant CYP3A4. The class given is ADME.
In assay [6] the target is T1, Cytochrome P450 1A2 (Homo sapiens, UniProt P05177).
T1 sequence (P05177 whole entry): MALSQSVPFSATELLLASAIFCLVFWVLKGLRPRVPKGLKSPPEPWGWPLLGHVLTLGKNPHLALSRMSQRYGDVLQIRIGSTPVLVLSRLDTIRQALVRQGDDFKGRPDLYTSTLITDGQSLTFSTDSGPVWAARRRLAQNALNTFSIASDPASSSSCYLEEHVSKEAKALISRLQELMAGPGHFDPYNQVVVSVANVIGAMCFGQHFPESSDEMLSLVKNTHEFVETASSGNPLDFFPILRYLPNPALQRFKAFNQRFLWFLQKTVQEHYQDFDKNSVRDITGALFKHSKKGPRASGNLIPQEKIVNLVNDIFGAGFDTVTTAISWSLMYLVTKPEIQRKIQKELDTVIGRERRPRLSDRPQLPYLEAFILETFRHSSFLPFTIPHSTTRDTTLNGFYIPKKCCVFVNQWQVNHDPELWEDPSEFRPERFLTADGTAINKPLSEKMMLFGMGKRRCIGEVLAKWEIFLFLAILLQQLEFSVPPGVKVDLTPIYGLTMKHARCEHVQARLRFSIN
Nature of the assay: Inhibition of human recombinant CYP1A2. It is filed as ADME.

Assay [7] has as its system Saccharomyces cerevisiae. Nature of the assay: Fungistatic activity against Saccharomyces cerevisiae ATCC 24657 assessed as cell growth at 100 uM after 48 hrs by spectrophotometric bioassay. The class given is functional, organism-based.
Assay [8] has as its system Saccharomyces cerevisiae. Nature of the assay: Antifungal activity against Saccharomyces cerevisiae ATCC 24657 assessed as growth inhibition after 24 to 48 hrs by agar plate bioassay. The class given is functional.
Assay [9] has as its target Cytochrome P450 2C19 (Homo sapiens, UniProt P33261). Nature of the assay: Inhibition of human recombinant CYP2C19. It is filed as ADME.
The test system of assay [10] is Candida albicans. Nature of the assay: Antifungal activity against Candida albicans ATCC 32032 assessed as growth inhibition after 24 to 48 hrs by agar plate bioassay. It is filed as functional.

Chain of Cytochrome P450 2D6 (P10635 whole entry): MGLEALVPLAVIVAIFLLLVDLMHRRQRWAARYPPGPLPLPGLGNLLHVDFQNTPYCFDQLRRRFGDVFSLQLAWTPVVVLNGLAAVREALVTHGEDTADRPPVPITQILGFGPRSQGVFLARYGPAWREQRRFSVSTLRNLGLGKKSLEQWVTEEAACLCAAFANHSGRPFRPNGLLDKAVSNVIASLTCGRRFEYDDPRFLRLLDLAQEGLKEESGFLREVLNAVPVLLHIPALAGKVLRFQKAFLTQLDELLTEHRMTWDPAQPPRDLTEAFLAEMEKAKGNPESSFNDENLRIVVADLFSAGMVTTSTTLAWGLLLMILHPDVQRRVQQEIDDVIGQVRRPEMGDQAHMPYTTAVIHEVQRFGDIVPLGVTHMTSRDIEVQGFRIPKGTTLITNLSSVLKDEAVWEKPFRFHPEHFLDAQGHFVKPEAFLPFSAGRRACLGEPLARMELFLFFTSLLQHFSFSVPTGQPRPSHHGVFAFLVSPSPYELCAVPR
Chain of Cytochrome P450 3A4 (P08684 whole entry): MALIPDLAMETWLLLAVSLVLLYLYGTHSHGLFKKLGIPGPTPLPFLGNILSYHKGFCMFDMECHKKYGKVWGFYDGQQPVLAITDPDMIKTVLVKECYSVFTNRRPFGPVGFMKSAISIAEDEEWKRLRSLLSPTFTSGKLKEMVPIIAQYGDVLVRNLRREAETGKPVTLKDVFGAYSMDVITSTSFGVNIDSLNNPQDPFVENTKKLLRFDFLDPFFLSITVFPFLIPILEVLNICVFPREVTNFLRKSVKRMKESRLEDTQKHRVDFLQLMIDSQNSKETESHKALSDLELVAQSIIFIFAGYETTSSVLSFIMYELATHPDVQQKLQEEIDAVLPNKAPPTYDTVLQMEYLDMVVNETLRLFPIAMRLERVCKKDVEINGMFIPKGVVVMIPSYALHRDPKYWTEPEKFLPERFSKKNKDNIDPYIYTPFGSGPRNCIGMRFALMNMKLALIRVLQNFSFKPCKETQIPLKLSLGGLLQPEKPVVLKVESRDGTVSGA
Chain of Cytochrome P450 2C9 (P11712 whole entry): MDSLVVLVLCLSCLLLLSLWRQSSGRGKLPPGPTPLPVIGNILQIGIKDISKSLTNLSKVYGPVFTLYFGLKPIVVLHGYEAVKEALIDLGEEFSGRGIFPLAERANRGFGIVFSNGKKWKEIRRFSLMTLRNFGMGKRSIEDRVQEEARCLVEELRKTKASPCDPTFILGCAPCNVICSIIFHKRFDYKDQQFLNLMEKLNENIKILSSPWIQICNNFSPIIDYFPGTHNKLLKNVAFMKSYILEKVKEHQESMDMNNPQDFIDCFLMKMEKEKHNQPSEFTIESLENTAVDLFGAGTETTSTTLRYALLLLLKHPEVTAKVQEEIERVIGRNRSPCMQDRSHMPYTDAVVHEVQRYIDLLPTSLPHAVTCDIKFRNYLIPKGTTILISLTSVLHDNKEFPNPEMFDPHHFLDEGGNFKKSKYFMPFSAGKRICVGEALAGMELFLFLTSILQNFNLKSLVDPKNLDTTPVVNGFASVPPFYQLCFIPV
Chain of Cytochrome P450 2C19 (P33261 whole entry): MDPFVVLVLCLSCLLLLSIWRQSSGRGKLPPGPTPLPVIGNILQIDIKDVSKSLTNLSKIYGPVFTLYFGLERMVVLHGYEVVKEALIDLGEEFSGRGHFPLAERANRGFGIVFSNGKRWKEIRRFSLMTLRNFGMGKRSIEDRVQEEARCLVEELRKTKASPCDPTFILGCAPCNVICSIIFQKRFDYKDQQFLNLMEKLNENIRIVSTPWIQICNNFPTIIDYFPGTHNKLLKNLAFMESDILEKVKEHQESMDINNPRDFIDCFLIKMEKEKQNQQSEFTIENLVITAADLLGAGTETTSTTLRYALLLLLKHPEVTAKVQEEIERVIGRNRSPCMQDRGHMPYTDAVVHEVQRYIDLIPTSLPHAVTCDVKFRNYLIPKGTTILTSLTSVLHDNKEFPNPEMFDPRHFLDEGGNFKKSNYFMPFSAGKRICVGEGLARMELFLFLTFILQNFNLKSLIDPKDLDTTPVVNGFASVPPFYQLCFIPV

On to `COc1ccc(-c2sc(/N=C/c3ccc(N(C)CCC#N)cc3)c(C#N)c2C)cc1OC`, for which, in assay [1], the outcome was Active. In addition, the IC50 in [2] stood at 23.3 µM; in assay [3], 1.2 µM; in [5], 33.2 µM; in assay [6], 11.9 µM; in [9], 1.1 µM. Besides, the inhibition at 100 µM in assay [4] is 95%. Also, the result in [7] was inactive. For the same compound, the MIC was 118 µM (≈ 52.5 µg/mL) in assay [8] and 12 µM (≈ 5.33 µg/mL) in [10]. In addition, the MIC50 in [8] stood at 2.7 µM (≈ 1.2 µg/mL).
